Consider 10 compounds from article PMC4392110, “Atom-Atom-Path similarity and Sphere Exclusion clustering: tools for prioritizing fragment hits” (Journal of Cheminformatics, 2015).

The target in this test is MAP4K4 kinase (Homo sapiens, UniProt O95819). The experiment in a line: MAP4K4 fragment screen, KD of fragment hits. The format is binding. The following applies: for Kd: fragment screening hits, read-out: MAP4K4 inact KD; for LE difference to the cluster seed: difference in LE to cluster seed (C02M01 or C12M01); for Ligand Efficiency: LE computed as 1.4*pKd/nHeavyAtoms. An excerpt: Utilizing additional fragment collections, we expanded our previous ~2,500 compound screen of the MAP4K4 kinase by performing an additional screen of 8,000 compounds [28]. […] AAP similarity and DISE clustering were used to cluster the combined hit set fragments. The fragment hits were sorted according to their LE, followed by the cluster seed selection. The AAP similarity threshold in this step was 0.3. The remaining hits were assigned to the most similar cluster seed.
Chain of MAP4K4 kinase (O95819 whole entry, the tested form may be a part): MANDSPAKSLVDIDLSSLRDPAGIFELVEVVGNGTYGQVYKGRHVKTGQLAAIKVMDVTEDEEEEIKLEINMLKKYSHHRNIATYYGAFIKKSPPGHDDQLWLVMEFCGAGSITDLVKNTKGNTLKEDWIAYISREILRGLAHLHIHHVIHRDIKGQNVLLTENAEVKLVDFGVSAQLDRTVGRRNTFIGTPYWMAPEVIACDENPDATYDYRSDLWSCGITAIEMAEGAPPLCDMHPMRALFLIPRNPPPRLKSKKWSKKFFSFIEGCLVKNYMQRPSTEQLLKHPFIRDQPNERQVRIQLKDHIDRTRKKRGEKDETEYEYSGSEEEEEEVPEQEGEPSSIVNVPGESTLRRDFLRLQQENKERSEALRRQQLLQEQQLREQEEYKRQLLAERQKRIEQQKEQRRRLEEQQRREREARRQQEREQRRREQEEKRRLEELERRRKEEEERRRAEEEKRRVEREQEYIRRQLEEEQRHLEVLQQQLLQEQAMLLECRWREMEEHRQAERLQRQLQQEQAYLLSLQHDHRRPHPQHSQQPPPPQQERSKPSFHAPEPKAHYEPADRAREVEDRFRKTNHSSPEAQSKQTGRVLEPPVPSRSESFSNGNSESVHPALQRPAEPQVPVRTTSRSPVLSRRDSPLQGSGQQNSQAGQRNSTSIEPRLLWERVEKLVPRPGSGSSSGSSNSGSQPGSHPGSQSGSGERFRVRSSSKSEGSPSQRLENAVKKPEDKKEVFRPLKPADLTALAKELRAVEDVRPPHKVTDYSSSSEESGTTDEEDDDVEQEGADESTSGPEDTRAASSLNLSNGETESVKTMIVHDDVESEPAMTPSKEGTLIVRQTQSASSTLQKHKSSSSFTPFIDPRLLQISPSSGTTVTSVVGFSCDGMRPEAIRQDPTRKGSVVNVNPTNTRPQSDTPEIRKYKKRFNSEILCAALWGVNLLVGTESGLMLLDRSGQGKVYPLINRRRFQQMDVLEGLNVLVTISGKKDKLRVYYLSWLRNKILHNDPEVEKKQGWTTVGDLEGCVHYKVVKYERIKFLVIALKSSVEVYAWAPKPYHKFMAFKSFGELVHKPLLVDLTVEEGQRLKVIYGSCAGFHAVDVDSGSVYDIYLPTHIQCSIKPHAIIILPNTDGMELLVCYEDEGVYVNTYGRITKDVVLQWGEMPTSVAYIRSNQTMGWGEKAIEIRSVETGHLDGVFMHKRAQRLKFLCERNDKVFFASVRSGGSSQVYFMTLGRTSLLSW

Turning to `CCc1nc(N)nc(N)c1-c1ccc(Cl)cc1` [C02M06], the Kd (as a rule, a measure of binding affinity in units of concentration) came out at 930 µM.

Regarding `Nc1ncncc1-c1ccccc1` [C02M02], the “LE difference to the cluster seed” value was 0.13 and the Kd turned out to be 28 µM.

On to `Nc1n[nH]c2cc(-c3ccccc3)ccc12` [C12M02], for which the “Ligand Efficiency” value was 0.49 and the Kd worked out at 2.1 µM.

As to `c1ccc(-c2n[nH]c3ccccc23)cc1` [C12M01], the “Ligand Efficiency” value is on record as 0.5 and the dissociation constant Kd was 3.4 µM.

For `Nc1c(-c2ccccc2)nn2ccccc12` [C12M05], the “Ligand Efficiency” value was 0.31 and the Kd is 276 µM.

Turning to `OCc1ccc(-c2cncnc2)cc1` [C02M05], the dissociation constant Kd stood at 505 µM.

As to `Nc1ncnc(Cl)c1-c1ccccc1` [C02M04], the Kd came to 367 µM.

For `Nc1ccc2[nH]nc(-c3ccccc3)c2c1` [C12M03], the “Ligand Efficiency” value came to 0.41, the “LE difference to the cluster seed” value came to 0.09 and the Kd worked out at 16.8 µM.

With `Nc1ncncc1-c1ccc(O)cc1` [C02M01], the Kd came out at 0.55 µM.

In the case of `Nc1ncncc1-c1ccc(Cl)cc1` [C02M03], the “LE difference to the cluster seed” value is recorded as 0.17 and the dissociation constant (Kd) is 35.5 µM.
